From US12509451B2, “Heteroaryl amide inhibitors of CD38” (NAPA THERAPEUTICS LTD., priority 2020, dated 2025)
Values joined by “and” are separate entries in the source; they are usually repeats but may differ in a detail not shown here. Identical values can stand only once. Values belong to the compound of their own block, whether it stands above or below them.

Assays:
[1] = molecular target: T1, recombinant mouse CD38 Protein (Mus musculus, UniProt P56528); assay: Fluorescence-based NAD+ cyclase activity assay with mouse recombinant CD38 protein (Assay 4); type: biochemical; conditions: read-out: Assay 4 Arithmetic mean IC50
T1 construct: purchased R&D System
T1 sequence (P56528 1-304): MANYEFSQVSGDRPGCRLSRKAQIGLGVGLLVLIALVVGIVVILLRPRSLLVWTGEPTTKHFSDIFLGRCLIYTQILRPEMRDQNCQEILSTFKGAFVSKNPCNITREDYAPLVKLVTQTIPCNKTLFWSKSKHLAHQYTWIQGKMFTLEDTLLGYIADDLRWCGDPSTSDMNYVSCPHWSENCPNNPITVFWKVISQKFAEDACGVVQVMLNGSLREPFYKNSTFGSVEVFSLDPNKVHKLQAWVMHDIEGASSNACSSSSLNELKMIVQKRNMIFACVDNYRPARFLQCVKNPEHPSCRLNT
Experimental: This protocol was modified from de Oliveira et al. (2018) supra.
NAD+ cyclase activity of the […] recombinant CD38 protein treated with test compounds was measured using a fluorescence-based assay. Briefly, recombinant mouse CD38 Protein (R&D System) was resuspended in 44 μl/well of Sucrose-Tris Buffer (Sucrose 0.25 M, Tris pH 7.4 40 mM) and plated in a 96-well black plate (CORNING) at a density of 32 ng/well.
Each test compound was received in a powder state and dissolved in DMSO as a 25 mM stock solution. Each test compound was serially diluted in order to generate a dose-response curve. The dilution series of each test compound in DMSO was prepared at 50 times the concentrations to be assayed. Each test compound was diluted to generate a 5-fold dilution series of 8 concentrations from 100 μM to 32 nM in order to assay 8 final concentrations ranging from 2 μM to 0.64 nM. One μl of the 50× concentration compound series was added to each well of the plate containing 125 ng of protein in Sucrose-Tris buffer.
Each plate had the following intra plate controls: 3 wells containing cells treated with vehicle only (DMSO), 3 wells of cells treated with the reference compounds 78c at a final concentration of 500 nM and 2 wells containing only Sucrose-Tris buffer (used as a background value).
The reaction was started adding nicotinamide guanine dinucleotide (NGD+) (Sigma Aldrich) to reach a final concentration of 150 µM. The samples were excited at 337-15 nm and the emission of fluorescence was measured at 442-20 nm at 37° C. every minute for 1 hr in a Clariostar® microplate reader (BMG LABTECH). NAD+ cyclase activity was calculated as the slope of the linear portion of the fluorescence-time curve using the MARS data analysis software (BMG LABTECH). The data were uploaded in the Collaborative Drug Design (CDD) Software and for each compound the IC50 was calculated by the software. Each compound was tested in 3 independent experiments on 3 separate days to establish the reproducibility of the results. For each plate, the z-factor was also calculated as a plate quality using the CDD software.

[2] = molecular target: T2, human CD38 enzyme in primary human M1 macrophages (Homo sapiens, UniProt P28907); assay: NAD+ hydrolase activity assay in primary human M1 macrophages; type: cell-based; conditions: primary human M1 macrophages (LPS stimulated)
T2 construct: The assay utilized whole primary human macrophages (from healthy donors); endogenous in cells; host or cells: primary human macrophages from healthy donors, LPS-stimulated (M1)
T2 sequence (P28907 1-300): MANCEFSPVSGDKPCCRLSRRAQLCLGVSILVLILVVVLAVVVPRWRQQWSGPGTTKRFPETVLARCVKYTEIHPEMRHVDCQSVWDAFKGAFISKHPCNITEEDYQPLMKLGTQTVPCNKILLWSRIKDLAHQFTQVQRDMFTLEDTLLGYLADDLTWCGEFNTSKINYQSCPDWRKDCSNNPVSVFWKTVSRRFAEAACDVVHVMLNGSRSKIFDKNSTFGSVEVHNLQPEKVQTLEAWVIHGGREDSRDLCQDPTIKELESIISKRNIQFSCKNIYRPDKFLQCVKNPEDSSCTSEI
Experimental: The in vitro potency of Compound 35 against the human CD38 enzyme was determined by a fluorescence-based NAD+ hydrolase activity assay using the NAD+ analog nicotinamide 1,N^6-etheno-adenine dinucleotide (εNAD+) as substrate. The assay utilized: 1) whole primary human CD4+ T cells (from healthy donors) activated with anti-CD3/CD28 antibodies and expressing human CD38; or II) whole primary human macrophages (from healthy donors) stimulated with LPS to polarize in a pro-inflammatory M1 state expressing human CD38. The cells were incubated in the presence of 8 different concentrations of Compound 35 for 10 minutes and the reaction was started adding the substrate εNAD+. The emission of fluorescence was measured at 410-20 nm at 37° C. every minute for 1 hr. The NAD+ hydrolase activity was calculated as the slope of the linear portion of the fluorescence-time curve and used to calculate the IC50 value.
(§1) The in vitro potency of Compound 32 against the human CD38 enzyme was determined by a fluorescence-based NAD+ hydrolase activity assay using the NAD+ analog nicotinamide 1,N6-etheno-adenine dinucleotide (εNAD+) as substrate. The assay utilized whole primary human macrophages (from healthy donors) stimulated with LPS to polarize in a pro-inflammatory M1 state expressing human CD38. […] The emission of fluorescence was measured at 410-20 nm at 37° C. every minute for 1 hr. The NAD+ hydrolase activity was calculated as the slope of the linear portion of the fluorescence-time curve and used to calculate the IC50 value.
as §1, with “39” for “32”, “substrate.” for “substrate. The assay utilized whole primary human macrophages (from healthy donors) stimulated with LPS to polarize in a pro-inflammatory M1 state expressing human CD38.”

CD38 = molecular target: T3, CD38 (Mus musculus, UniProt P56528); assay: In vivo efficacy against CD38 in obese mice, acute oral administration, liver NAD+ metabolites
T3 construct: aged mice (male C57BL6/J, 22 months old) were fasted for 4 hr; from tissue; host or cells: C57BL6/J mice (aged, DIO obese or LPS-challenged); liver, spleen, plasma
T3 sequence (P56528 1-304): T1 sequence (P56528 1-304)

[3] = single 10 mg/kg oral dose, 1 hour post administration
[4] = single 1 mg/kg and 10 mg/kg oral dose

Compound: COc1cc(C(=O)Nc2ccnc(C(F)(F)F)c2)nc(-n2ccnc2)n1 [Compound 37, 2-(1H-imidazol-1-yl)-6-methoxy-N-(2-(trifluoromethyl)pyridin-4-yl)pyrimidine-4-carboxamide]
IC50 [1]: 51 to 1000 nM

Compound: O=C(Nc1ccnc(C(F)(F)F)c1)c1cc(OC2CC2)nc(-n2ccnc2)n1 [Compound 40]
IC50 [1]: 51 to 1000 nM

Compound: O=C(Nc1ccnc(C(F)(F)F)c1)c1cc(OC2CC2)cc(-n2ccnc2)n1 [Compound 32, 4-cyclopropoxy-6-(1H-imidazol-1-yl)-N-(2-(trifluoromethyl)pyridin-4-yl)picolinamide]
IC50 [2]: 3.5 nM and 3.49 nM
ADPR levels in liver (CD38; single 3 mg/kg oral dose): decrease
NAD+ levels in liver (CD38; single 3 mg/kg oral dose): increase
NAM levels in liver (CD38; single 3 mg/kg oral dose): decrease
NMN levels in liver (CD38; single 3 mg/kg oral dose): increase
ADPR levels in liver (CD38; [3]): decrease
NAD+ levels in liver (CD38; [3]): remarkably increase
NAM levels in liver (CD38; [3]): decrease
NMN levels in liver (CD38; [3]): remarkably increase

Compound: CC1(Oc2cc(C(=O)Nc3ccnc(C(F)(F)F)c3)nc(-n3ccnc3)c2)COC1 [Compound 34, 6-(1H-imidazol-1-yl)-4-((3-methyloxetan-3-yl)oxy)-N-(2-(trifluoromethyl)pyridin-4-yl)picolinamide]
IC50 [1]: 51 to 1000 nM

Compound: COCCOc1cc(C(=O)Nc2ccnc(C(F)(F)F)c2)nc(-n2ccnc2)n1 [Compound 39, 2-(1H-imidazol-1-yl)-6-(2-methoxyethoxy)-N-(2-(trifluoromethyl)pyridin-4-yl)pyrimidine-4-carboxamide]
IC50 [1]: 1 to 50 nM
IC50 [2]: 3.9 nM and 3.92 nM
ADPR levels in liver (CD38; [4]): decrease
NAD+ levels in liver (CD38; [4]): increase
NAM levels in liver (CD38; [4]): decrease
NMN levels in liver (CD38; [4]): increase

Compound: CCOc1cc(C(=O)Nc2ccnc(C(F)(F)F)c2)nc(-n2ccnc2)n1 [Compound 38]
IC50 [1]: 51 to 1000 nM

Continued, values first:

IC50 [1]: 1 to 50 nM
Compound: O=C(Nc1ccnc(C(F)(F)F)c1)c1cc(C2CC2)nc(-n2ccnc2)n1 [Compound 51, 6-cyclopropyl-2-(1H-imidazol-1-yl)-N-(2-(trifluoromethyl)pyridin-4-yl)pyrimidine-4-carboxamide]

IC50 [1]: 1 to 50 nM
IC50 [2]: 2.25 nM
Compound: COc1cc(C(=O)Nc2ccnc(C(F)(F)F)c2)nc(-n2ccnc2)c1 [Compound 35, 6-(1H-imidazol-1-yl)-4-methoxy-N-(2-(trifluoromethyl)pyridin-4-yl)picolinamide]

IC50 [1]: 1 to 50 nM
Compound: CN(C)CCOc1cc(C(=O)Nc2ccnc(C(F)(F)F)c2)nc(-n2ccnc2)c1 [Compound 33]
